Key:
[1] = tested on: Alternaria solani (F129L); assay: Micro titer plate test against early blight (ALTESO F129L); assay type: cell-based; conditions: 4 ppm, 7 days after inoculation, relative to compound-free control (100%)
[2] = tested on: Phakopsora pachyrhizi (wt); assay: Protective control of soybean rust on detached soybean leaves (PHAKPA P1 DL), Qo inhibitor-sensitive wt isolate; assay type: in vivo
[3] = tested on: Phakopsora pachyrhizi (F129L); assay: Protective control of soybean rust on soybeans (PHAKPA P6); assay type: in vivo; conditions: for % PHAKPA (F129L) Disease level P6 at 4 ppm: protective P6, 4 ppm; for % PHAKPA (F129L) Disease level P6 at 16 ppm: protective P6, 16 ppm
[4] = tested on: Phakopsora pachyrhizi (F129L); assay: Protective control of soybean rust on soybeans (PHAKPA P2); assay type: in vivo; conditions: for % PHAKPA (F129L) Disease level P2 at 4 ppm: protective P2, 4 ppm; for % PHAKPA (F129L) Disease level P2 at 16 ppm: protective P2, 16 ppm

Structure (SMILES)	% PHAKPA (F129L) Disease level P6 at 4 ppm ([3]; soybean rust F129L isolate)	% PHAKPA (F129L) Disease level P6 at 16 ppm ([3]; soybean rust F129L isolate)	% PHAKPA (F129L) Disease level P2 at 4 ppm ([4]; soybean rust F129L isolate)	% PHAKPA (F129L) Disease level P2 at 16 ppm ([4]; soybean rust F129L isolate)	other results
CO/N=C(/C(=O)OC)c1cccc(C)c1CO/N=C(\C)c1cccc(OC(F)(F)F)c1 [drawing 940]					Fungal growth (%) ALTESO F129L [1]: 87%
Cc1cccc(-n2nnn(C)c2=O)c1COc1ccn(-c2ccc(Cl)cc2)n1 [drawing 932, reference compound]					PHAKPA P1 DL Disease level (%) Qo I-sensitive wt isolate (0 % F129L) ([2]; test concentration 0.3 ppm): 78%; PHAKPA P1 DL Disease level (%) Qo I-sensitive wt isolate (0 % F129L) ([2]; test concentration 1 ppm): 80%; PHAKPA P1 DL Disease level (%) Qo I-sensitive wt isolate (0 % F129L) ([2]; test concentration 3 ppm): 77%; PHAKPA P1 DL Disease level (%) Qo I-sensitive wt isolate (0 % F129L) ([2]; test concentration 10 ppm): 48%; PHAKPA P1 DL Disease level (%) Qo I-sensitive wt isolate (0 % F129L) ([2]; test concentration 30 ppm): 30%; PHAKPA P1 DL Disease level (%) Qo I-sensitive wt isolate (0 % F129L) ([2]; test concentration 100 ppm): 18%; PHAKPA P1 DL Disease level (%) Qo I-sensitive wt isolate (0 % F129L) ([2]; test concentration 300 ppm): 5%
CO/C=C(/C(=O)OC)c1cccc(C)c1CO/N=C(\C)c1ccc(Br)cc1C(F)(F)F [compound 445]					% PHAKPA (F129L) Disease level P6 at 4 ppm ([3]; F129L isolate): 30%; % PHAKPA (F129L) Disease level P6 at 16 ppm ([3]; F129L isolate): 2%; % PHAKPA (F129L) Disease level P2 at 4 ppm ([4]; F129L isolate): 15%; % PHAKPA (F129L) Disease level P2 at 16 ppm ([4]; F129L isolate): 1%
CNC(=O)/C(=N/OC)c1cccc(C)c1CO/N=C(\C)c1cc(C)ccc1C [compound 278]	90%	93%	90%	60%	
CNC(=O)/C(=N/OC)c1cccc(C)c1CO/N=C(\C)c1ccccc1COC [compound 277]	100%	100%	100%	60%	
CNC(=O)/C(=N/OC)c1cccc(C)c1CO/N=C(\C)c1ccc(C)cc1C(F)(F)F [compound 327]	48%	4%	23%	3%	
CNC(=O)/C(=N/OC)c1cccc(C)c1CO/N=C(\C)c1ccccc1OC1CC1 [compound 329]	100%	73%	100%	53%	
CNC(=O)/C(=N/OC)c1cccc(C)c1CO/N=C(\C)c1cccc(C2CC2)c1 [compound 299]	53%	22%	53%	13%	
CNC(=O)/C(=N/OC)c1cccc(C)c1CO/N=C(\CC(F)(F)F)c1ccccc1 [compound 380]					% PHAKPA (F129L) Disease level P6 at 4 ppm ([3]; F129L isolate): 60%; % PHAKPA (F129L) Disease level P6 at 16 ppm ([3]; F129L isolate): 12%; % PHAKPA (F129L) Disease level P2 at 4 ppm ([4]; F129L isolate): 53%; % PHAKPA (F129L) Disease level P2 at 16 ppm ([4]; F129L isolate): 5%
CO/N=C(/C(=O)OC)c1cccc(C)c1CO/N=C(\C)c1cccc(F)c1C(F)(F)F [compound 330]	93%	17%	83%	24%	
CNC(=O)/C(=N/OC)c1cccc(C)c1CO/N=C(\C)c1ccccc1OC(F)F [compound 252]	87%	32%	50%	3%	
CO/N=C(/C(=O)OC)c1cccc(C)c1CO/N=C(\C)c1ccccc1OC(F)F [compound 253]	100%	57%	100%	87%	
CO/N=C(/C)c1ccc(/C(C)=N/OCc2c(C)cccc2/C(=N\OC)C(=O)OC)c(C(F)(F)F)c1 [compound 417]					% PHAKPA (F129L) Disease level P6 at 4 ppm ([3]; F129L isolate): 63%; % PHAKPA (F129L) Disease level P6 at 16 ppm ([3]; F129L isolate): 22%; % PHAKPA (F129L) Disease level P2 at 4 ppm ([4]; F129L isolate): 35%; % PHAKPA (F129L) Disease level P2 at 16 ppm ([4]; F129L isolate): 18%
CO/N=C(/C(=O)OC)c1cccc(C)c1CO/N=C(\C)c1cc(F)ccc1Br [compound 254]	100%	100%	100%	77%	
CO/N=C(/C(=O)OC)c1cccc(C)c1CO/N=C(\C)c1c(F)cc(Br)cc1C(F)(F)F [compound 368]	90%	73%	83%	47%	
CO/N=C(/C(=O)OC)c1cccc(C)c1CO/N=C(\C)c1ccc(Cl)cc1C(F)(F)F [compound 304]	100%	37%	53%	28%	
CO/N=C(/C(=O)OC)c1cccc(C)c1CO/N=C(\C)c1c(C)cccc1F [compound 285]	90%	35%	87%	50%	

Structure (SMILES)	% PHAKPA (F129L) Disease level P6 at 4 ppm ([3]; soybean rust F129L isolate)	% PHAKPA (F129L) Disease level P6 at 16 ppm ([3]; soybean rust F129L isolate)	% PHAKPA (F129L) Disease level P2 at 4 ppm ([4]; soybean rust F129L isolate)	% PHAKPA (F129L) Disease level P2 at 16 ppm ([4]; soybean rust F129L isolate)	other results
CNC(=O)/C(=N/OC)c1ccccc1CO/N=C(\C)c1cc(F)ccc1F [reference compound]					PHAKPA (F129L) Disease level (%) P6 at 16 ppm ([3]; protective, inoculation six days after spraying, 16 ppm, % diseased leaf area): 22%; PHAKPA (F129L) Disease level (%) P2 at 16 ppm ([4]; protective, inoculation 2 days after spraying, 16 ppm, % diseased leaf area): 1%
CNC(=O)/C(=N/OC)c1cccc(C)c1CO/N=C(\C)c1cccc(Cl)c1C(F)(F)F [compound 422]					% PHAKPA (F129L) Disease level P6 at 4 ppm ([3]; F129L isolate): 32%; % PHAKPA (F129L) Disease level P6 at 16 ppm ([3]; F129L isolate): 2%; % PHAKPA (F129L) Disease level P2 at 4 ppm ([4]; F129L isolate): 30%; % PHAKPA (F129L) Disease level P2 at 16 ppm ([4]; F129L isolate): 0%
CO/N=C(/C(=O)OC)c1cccc(C)c1CO/N=C(\C)c1c(F)cccc1Cl [compound 283]	87%	22%	83%	30%	
CNC(=O)/C(=N/OC)c1cccc(C)c1CO/N=C(\C)c1cccc(N2CC(F)(F)C2)c1 [compound 282]		18%		15%	
CO/N=C(/C(=O)OC)c1cccc(C)c1CO/N=C(\C)c1ccc(F)cc1Cl [compound 256]	70%	20%	50%	18%	
CNC(=O)/C(=N/OC)c1cccc(C)c1CO/N=C(\C)c1cccc(C(C)(F)F)c1 [compound 303]	12%	0%	2%	0%	
CNC(=O)/C(=N/OC)c1cccc(C)c1CO/N=C(\C)c1ccc(-c2ccccc2)cc1OC(F)(F)F [compound 435]					% PHAKPA (F129L) Disease level P6 at 4 ppm ([3]; F129L isolate): 87%; % PHAKPA (F129L) Disease level P6 at 16 ppm ([3]; F129L isolate): 60%; % PHAKPA (F129L) Disease level P2 at 4 ppm ([4]; F129L isolate): 93%; % PHAKPA (F129L) Disease level P2 at 16 ppm ([4]; F129L isolate): 57%
CNC(=O)/C(=N/OC)c1cccc(C)c1CO/N=C(\C)c1c(F)cc(F)cc1OC(F)(F)F [compound 344]	16%	0%	6%	0%	
CNC(=O)/C(=N/OC)c1cccc(C)c1CO/N=C(\C)c1c(F)cccc1C(F)(F)F [compound 345]	32%	1%	22%	1%	
CNC(=O)/C(=N/OC)c1cccc(C)c1CO/N=C(\C)c1ccc(F)cc1OC(F)(F)F [compound 378]	17%	1%	18%	1%	
CO/C=C(/C(=O)OC)c1cccc(C)c1CO/N=C(\C)c1c(Cl)ccc(F)c1OC(F)(F)F [compound 442]					% PHAKPA (F129L) Disease level P6 at 4 ppm ([3]; F129L isolate): 80%; % PHAKPA (F129L) Disease level P6 at 16 ppm ([3]; F129L isolate): 77%; % PHAKPA (F129L) Disease level P2 at 4 ppm ([4]; F129L isolate): 100%; % PHAKPA (F129L) Disease level P2 at 16 ppm ([4]; F129L isolate): 93%
CO/C=C(/C(=O)OC)c1cccc(C)c1CO/N=C(\C)c1ccc(Cl)c(F)c1OC(F)(F)F [compound 452]					% PHAKPA (F129L) Disease level P6 at 4 ppm ([3]; F129L isolate): 70%; % PHAKPA (F129L) Disease level P6 at 16 ppm ([3]; F129L isolate): 14%; % PHAKPA (F129L) Disease level P2 at 4 ppm ([4]; F129L isolate): 60%; % PHAKPA (F129L) Disease level P2 at 16 ppm ([4]; F129L isolate): 6%
CO/N=C(\C)COc1cccc(/C(C)=N/OCc2c(C)cccc2/C(=N\OC)C(=O)OC)c1 [compound 227]	100%	57%	100%	47%	
CO/N=C(/C(=O)OC)c1cccc(C)c1CO/N=C(\C)c1ccc(F)cc1C(F)(F)F [compound 263]	73%	22%	80%	15%	
CO/N=C(/C(=O)OC)c1cccc(C)c1CO/N=C(\C)c1ccccc1OC(F)(F)F [compound 236]	97%	100%	97%	77%	
CNC(=O)/C(=N/OC)c1cccc(C)c1CO/N=C(\C)c1cc(Cl)cc(C(F)(F)F)c1 [compound 228]	22%	2%	5%	0%	
CO/C=C(/C(=O)OC)c1cccc(C)c1CO/N=C(\C)c1ccccc1CC(F)(F)F [compound 437]					% PHAKPA (F129L) Disease level P6 at 4 ppm ([3]; F129L isolate): 8%; % PHAKPA (F129L) Disease level P6 at 16 ppm ([3]; F129L isolate): 0%; % PHAKPA (F129L) Disease level P2 at 4 ppm ([4]; F129L isolate): 2%; % PHAKPA (F129L) Disease level P2 at 16 ppm ([4]; F129L isolate): 0%
